According to US8222218B2, “Cyclopropanated carbohydrates” (Seton Hall University, priority 2008, dated 2012):
Where two headings read alike, the source gives them in different places.

Legend:
Format in all cases: in vivo
[1] = Acute toxicity, minimal motor impairment (rotorod), mice; conditions: mice, rotorod; for TOX 30 0.5 h (animals toxic/tested) / TOX 30 4 h (animals toxic/tested): 30 mg/kg; for TOX 100 0.5 h (animals toxic/tested) / TOX 100 4 h (animals toxic/tested): 100 mg/kg; for TOX 300 0.5 h (animals toxic/tested) / TOX 300 4 h (animals toxic/tested): 300 mg/kg
Protocol: Toxicity was measured using the minimal motor impairment test described below.
Animals are monitored for overt signs of impaired neurological or muscular function to assess a compound's toxicity. In mice, the rotorod procedure is used to disclose minimal muscular or neurological impairment. When a mouse is placed on a rotating rod (6 rpm), the animal can maintain its equilibrium for long periods of time. The animal is considered toxic if it falls off the rotating rod three times during a 1 minute period. In rats, minimal motor deficit is indicated by ataxia, which is manifested by an abnormal, uncoordinated gait.

[2] = tested on: MES-induced seizures; assay: Maximal Electroshock Seizure (MES) test, mice; conditions: for responders at 30 mg/kg / responders at 100 mg/kg / responders at 300 mg/kg: Mus musculus, ip
Excerpt: The MES test is a model for generalized tonic-clonic seizures. The seizures are highly reproducible and electrophysiologically consistent with human seizures. The test provides information about a compound's ability to prevent the spread of seizure when all neuronal circuits of the brain are maximally active. 60 Hz of alternating current (50 mA in mice, 150 mA in rats) is applied for 2 seconds via corneal electrodes that have been treated with an electrolyte solution containing an anesthetic (0.5% tetracaine HCl). Mice are tested at a variety of intervals after an i.p. injection of […] solution of the test compound (commonly in a 0.5% solution of methylcellulose) at 30, 100, and 300 mg/kg doses. Rats are examined after a 30 mg/kg (per os, p.o.) dose that is applied in a volume of 0.04 mL/g. An animal is considered “protected” from MES-induced seizures upon removal of the hind limb extensor component of the seizure.
(§1) Male and female albino CF1 mice (18-25 g, Charles River, Portage, Mich.) and male albino Sprague-Dawley rats (275-300 g, kindling test; 100-150 g all other tests; Charles River, Raleigh, N.C.) were used as experimental animals.

[3] = tested on: metrazole-induced clonic seizures; assay: Subcutaneous Metrazole Seizure Threshold Test (scMET), mice; conditions: for responders at 30 mg/kg / responders at 100 mg/kg / responders at 300 mg/kg: Mus musculus, sc
Protocol: The subcutaneous injection of metrazole, which is a convulsant, produces clonic seizures in laboratory animals. The scMET test is designed to identify compounds that raise the seizure threshold of an animal. Mice are pretreated with test compound at 30, 100, and 300 mg/kg doses in a similar manner to the MES test. Rats are treated with a 50 mg/kg dose (p.o.). At the previously determined TPE of the test compound, the dose of metrazole that will induce convulsions in 97% of animals (CD97: 85 mg/kg mice) is injected into the loose fold of the skin in the midline of the neck. The animals are placed in isolation cages to minimize stress and observed for the next 30 minutes for the presence or absence of seizures. An episode of clonic spasms (approximately 3-5 seconds) of the fore and/or hindlimbs, jaws or vibrissae is taken as the endpoint.
as §1

[4] = 0.5 h, read-out: MES 30 0.5 h (animals protected/tested)
[5] = 0.5 h, read-out: MES 100 0.5 h (animals protected/tested)
[6] = 0.5 h, read-out: MES 300 0.5 h (animals protected/tested)
[7] = 4 h, read-out: MES 30 4 h (animals protected/tested)
[8] = 4 h, read-out: MES 100 4 h (animals protected/tested)
[9] = 4 h, read-out: MES 300 4 h (animals protected/tested)
[10] = 0.4 h, read-out: scMET 30 0.4 h (animals protected/tested)
[11] = 0.4 h, read-out: scMET 100 0.4 h (animals protected/tested)
[12] = 0.4 h, read-out: scMET 300 0.4 h (animals protected/tested)
[13] = 0.5 h, read-out: scMET 30 0.5 h (animals protected/tested)
[14] = 0.5 h, read-out: scMET 100 0.5 h (animals protected/tested)
[15] = 0.5 h, read-out: scMET 300 0.5 h (animals protected/tested)
[16] = mice, i.p., 30 mg/kg, 0.5 h, read-out: MES 30 0.5 h (animals protected/tested)
[17] = mice, i.p., 30 mg/kg, 4 h, read-out: MES 30 4 h (animals protected/tested)
[18] = mice, i.p., 100 mg/kg, 0.5 h, read-out: MES 100 0.5 h (animals protected/tested)
[19] = mice, i.p., 100 mg/kg, 4 h, read-out: MES 100 4 h (animals protected/tested)
[20] = mice, i.p., 300 mg/kg, 0.5 h, read-out: MES 300 0.5 h (animals protected/tested)
[21] = mice, i.p., 300 mg/kg, 4 h, read-out: MES 300 4 h (animals protected/tested)
[22] = mice, 30 mg/kg, 0.4 h, read-out: scMET 30 0.4 h (animals protected/tested)
[23] = mice, 30 mg/kg, 0.5 h, read-out: scMET 30 0.5 h (animals protected/tested)
[24] = mice, 100 mg/kg, 0.4 h, read-out: scMET 100 0.4 h (animals protected/tested)
[25] = mice, 100 mg/kg, 0.5 h, read-out: scMET 100 0.5 h (animals protected/tested)
[26] = mice, 300 mg/kg, 0.4 h, read-out: scMET 300 0.4 h (animals protected/tested)
[27] = mice, 300 mg/kg, 0.5 h, read-out: scMET 300 0.5 h (animals protected/tested)

Row | SMILES | TOX 30 0.5 h (animals toxic/tested) [1] | TOX 30 4 h (animals toxic/tested) [1] | TOX 100 0.5 h (animals toxic/tested) [1] | TOX 100 4 h (animals toxic/tested) [1] | TOX 300 0.5 h (animals toxic/tested) [1] | TOX 300 4 h (animals toxic/tested) [1] | responders at 30 mg/kg [2, 4] [%] | responders at 100 mg/kg [2, 5] [%] | responders at 30 mg/kg [2, 16] [%] | responders at 30 mg/kg [2, 17] [%] | responders at 100 mg/kg [2, 18] [%] | responders at 100 mg/kg [2, 19] [%] | responders at 300 mg/kg [2, 20] [%] | responders at 300 mg/kg [2, 21] [%] | responders at 30 mg/kg [3, 22] [%] | responders at 30 mg/kg [3, 23] [%] | responders at 100 mg/kg [3, 24] [%] | responders at 100 mg/kg [3, 25] [%] | responders at 300 mg/kg [3, 26] [%] | responders at 300 mg/kg [3, 27] [%] | also measured
1 | CCOC(=O)[C@@H]1[C@H]2O[C@@H]3CO[Si](C(C)(C)C)(C(C)(C)C)O[C@H]3/C(=N/O)[C@H]21 [Compound 4] | 0/4 | 0/2 | 0/8 | 1/4 | 0/4 | 0/2 | 0 | 0 | – | – | – | – | – | – | – | – | – | – | – | – | responders at 300 mg/kg [2, 6]: 0%; responders at 30 mg/kg [2, 7]: 0%; responders at 100 mg/kg [2, 8]: 0%; responders at 300 mg/kg [2, 9]: 0%; responders at 30 mg/kg [3, 10]: 0%; responders at 100 mg/kg [3, 11]: 0%; responders at 300 mg/kg [3, 12]: 0%; responders at 30 mg/kg [3, 13]: 0%; responders at 100 mg/kg [3, 14]: 0%; responders at 300 mg/kg [3, 15]: 0%
2 | CCOC(=O)[C@@H]1[C@H]2O[C@@H]3CO[Si](C(C)(C)C)(C(C)(C)C)O[C@H]3[C@H](OS(=O)(=O)N(C)C)[C@H]21 [Compound 5, (1S,1as,2R,2aR,6aR,7aS)-4,4-di-tert-butyl-2-dimethylsulfamoyloxy-hexahydro-3,5,7-trioxa-4-sila-cyclopropa[b]naphthalene-1-carboxylic acid ethyl ester] | 0/4 | 0/2 | 0/8 | 0/4 | 1/4 | 0/2 | 0 | 0 | – | – | – | – | – | – | – | – | – | – | – | – | responders at 300 mg/kg [2, 6]: 0%; responders at 30 mg/kg [2, 7]: 0%; responders at 100 mg/kg [2, 8]: 0%; responders at 300 mg/kg [2, 9]: 0%; responders at 30 mg/kg [3, 10]: 0%; responders at 100 mg/kg [3, 11]: 0%; responders at 300 mg/kg [3, 12]: 0%; responders at 30 mg/kg [3, 13]: 0%; responders at 100 mg/kg [3, 14]: 0%; responders at 300 mg/kg [3, 15]: 0%
3 | CCOC(=O)C1[C@@H]2[C@@H](O)[C@@H]3OC(C)(C)OC[C@H]3O[C@H]12 (stereo partly drawn) [Compound 6a, Ethyl (4aR,5aS,6aR,7R,7aS)-7-hydroxy-2,2-dimethylhexahydro-4H-cyclopropa[5,6]pyrano[3,2-d][1,3]dioxine-6-carboxylate] | 0/4 | 0/2 | 0/8 | 0/4 | 0/4 | 0/2 | – | – | 0 | 0 | 0 | 0 | 0 | 0 | 0 | 0 | 0 | 0 | 0 | 0 | –
4 | CCOC(=O)C1[C@@H]2[C@@H](OS(=O)(=O)N(C)C)[C@@H]3OC(C)(C)OC[C@H]3O[C@H]12 (stereo partly drawn) [Compound 8a, Ethyl (4aR,5aS,6aS,7R,7aR)-7-[(dimethlylsulfamoyl)oxy]-2,2-dimethylhexahydro-4H-cyclopropa[5,6]pyrano[3,2-d][1,3]dioxine-6-carboxylate] | 0/4 | 0/2 | 0/8 | 0/4 | 1/4 | 0/2 | – | – | – | – | – | – | – | – | – | – | – | – | – | – | MES 30 0.5 h (animals protected/tested) ([2]; mice, i.p., 30 mg/kg, 0.5 h): 0/1; MES 30 4 h (animals protected/tested) ([2]; mice, i.p., 30 mg/kg, 4 h): 0/1; MES 100 0.5 h (animals protected/tested) ([2]; mice, i.p., 100 mg/kg, 0.5 h): 0/3; MES 100 4 h (animals protected/tested) ([2]; mice, i.p., 100 mg/kg, 4 h): 0/3; MES 300 0.5 h (animals protected/tested) ([2]; mice, i.p., 300 mg/kg, 0.5 h): 0/1; MES 300 4 h (animals protected/tested) ([2]; mice, i.p., 300 mg/kg, 4 h): 0/1; scMET 30 0.4 h (animals protected/tested) ([3]; mice, 30 mg/kg, 0.4 h): 0/1; scMET 30 0.5 h (animals protected/tested) ([3]; mice, 30 mg/kg, 0.5 h): 0/1; scMET 100 0.4 h (animals protected/tested) ([3]; mice, 100 mg/kg, 0.4 h): 0/1; scMET 100 0.5 h (animals protected/tested) ([3]; mice, 100 mg/kg, 0.5 h): 0/1; scMET 300 0.4 h (animals protected/tested) ([3]; mice, 300 mg/kg, 0.4 h): 0/1; scMET 300 0.5 h (animals protected/tested) ([3]; mice, 300 mg/kg, 0.5 h): 0/1
5 | CCOC(=O)C1[C@@H]2[C@@H](OS(N)(=O)=O)[C@@H]3OC(C)(C)OC[C@H]3O[C@H]12 (stereo partly drawn) [Compound 8b, ethyl (4aR,5aS,6aS,7R,7aR)-2,2-dimethyl-7-(sulfamoyloxy)hexahydro-4H-cyclopropa[5,6]pyrano[3,2-d][1,3]dioxine-6-carboxylate] | 0/4 | 0/2 | 1/8 | 0/4 | 1/4 | 0/2 | – | – | 0 | 0 | 0 | 0 | 0 | 0 | 0 | 0 | 0 | 0 | 0 | 0 | –
6 | CCOC(=O)[C@@H]1[C@H]2O[C@@H]3COC(C)(C)O[C@H]3[C@H](OC)[C@H]21 [Compound 9, Ethyl (4aR,5aS,6aS,7R,7aS)-7-methoxy-2.2-dimethylhexahydro-4H-cyclopropa[5,6]pyrano[3,2-d][1,3]dioxine-6-carboxylate] | 0/4 | 0/2 | 0/8 | 0/4 | 0/4 | 0/2 | – | – | 0 | 0 | 0 | 0 | 0 | 0 | 0 | 0 | 0 | 0 | 0 | 0 | –
